Assay results reported in publication PMC7787731, “Synthesis and Characterization of New Dihydronaphthalene Candidates as Potent Cytotoxic Agents against MCF-7 Human Cancer Cells” (BioMed Research International, 2020).
Like-named read-outs stand apart in the source and are kept apart here.

What was measured:
[1] = system: normal epithelial breast cells (MCF10A); assay: In vitro cytotoxicity MTT assay against normal breast MCF10A cells; format: cell-based; details: for IC50: Homo sapiens, MCF-10A, MTT assay, normal breast cell line, mean ± SD of three replicates
Text: Statistical significance was defined when p < 0.05.

[2] = system: MCF-7 (human breast adenocarcinoma) cell lines; assay: In vitro cytotoxicity MTT assay against breast cancer MCF-7 cells
Protocol: Both MCF-7 and MCF10A cells were purchased from American Type Culture Collection (ATCC). Cells were grown in DMEM culture medium (Invitrogen/Life Technologies) supplemented with 10% FBS (Hyclone, USA), 10 μg/mL insulin (Sigma), and 1% penicillin-streptomycin antibiotic solution. Chemicals used were of cell culture grade and were purchased from Sigma or Invitrogen. Prior to the assay, cells (cells density 1.2–1.8 × 10,000 cells/well) were plated in 96-well plate with 100 μL medium and were allowed to grow for 24 h.
In vitro cytotoxic activity of the prepared compounds against breast (MCF-7) cancer cells was assessed using MTT assay [24, 25]. The assay depends on the mitochondrial reduction of the colorless 3-(4,5-methyl-2-thiazolyl)-2,5-diphenyl-2H-tetrazolium bromide (MTT) within viable cells into a dark blue formazan product. […] The supernatant was taken away from each well, and 100 μL of DMSO was added to each well to dissolve the formazan crystals. After mixing with a mechanical plate mixer, a microplate reader was used to measure the absorbance of each well at a wavelength of 570 nm. […] IC50 values were calculated from the linear regression of the corresponding calibration curves using the Origin® 6.1 software.
Results were analyzed with the help of SPSS 9.0 and were presented as mean ± SD of three replicates. The mean comparison between different evaluated groups was performed using ANOVA one-way analysis of variance. Statistical significance was defined when p < 0.05.

[3] = Homo sapiens, MCF7, 72 h, read-out: IC50 (μM) MCF-7, MTT assay, 0.39-100 μM, 3 days, mean ± SD of three replicates

SMILES | IC50 [1] | melting point | IC50 [2, 3] | decrease in cytotoxicity relative to N-ethyl thiourea derivative 3d ([2]; MCF-7, N-4-bromophenyl versus N-ethyl substitution) | less toxic than Saturosporin towards MCF01A normal cells ([1]; compared with Saturosporin as worded) | IC50 ([2]; read-out: IC50 (μM) MCF-7, MTT assay, 0.39-100 μM, 3 days, mean ± SD of three replicates)
CCN=C1SCC(=O)N1N=C1CCCc2cc(OC)ccc21 [Compound 4d, 2-(Ethylimino)-3-((6-methoxy-3,4-dihydronaphthalen-1(2H)-ylidene)amino)thiazolidin-4-one] | 30.7 ± 0.53 µM | 117 °C | 10.1 ± 0.26 µM |  |  | 
COc1ccc2c(c1)CCCC2=NNC(=S)Nc1ccc(Oc2ccccc2)cc1 [Compound 3c, 2-(6-Methoxy-3,4-dihydronaphthalen-1(2H)-ylidene)-N-(4-phenoxyphenyl)-hydrazine-1-carbo thioamide] |  | 171 °C |  |  |  | 
COc1ccc2c(c1)CCCC2=Nn1c(=Nc2ccc(Br)cc2)sc2cc(C#N)c(=S)[nH]c21 [Compound 10, 2-((4-Bromophenyl)imino)-3-((6-methoxy-3,4-dihydronaphthalen-1(2H)-ylidene)amino)-5-thioxo-2,3,4,5-tetrahydrothiazolo [4,5-b]pyridine-6-carbonitrile] | 15 ± 0.39 µM | 286 °C | 2.83 ± 0.07 µM |  |  | 
COc1ccc2c(c1)CCCC2=Nn1c2c(sc1=Nc1ccc(Oc3ccccc3)cc1)C(c1ccco1)C(C#N)=C(N)O2 (stereo not drawn) [Compound 5f, 5-Amino-7-(furan-2-yl)-3-((6-methoxy-3,4-dihydronaphthalen-1(2H)-ylidene)amino)-2-((4-phenoxyphenyl)imino)-3,7-dihydro-2H-pyrano [2,3-d]thiazole-6-carbonitrile] |  | 280 °C |  |  |  | 
COc1ccc2c(c1)CCCC2=NN1C(=O)C(=CNc2nc3ccccc3[nH]2)SC1=Nc1ccc(Br)cc1 [Compound 11, 5-((1H-Benzo [d]imidazol-2-ylamino)methylene)-2-(4-bromophenylimino)-3-((6-methoxy-3,4-dihydronaphthalen-1(2H)-ylidene)amino)thiazolidin-4-one] |  | 220 °C |  |  |  | 
CCOC(=O)c1cc2sc(=Nc3ccc(Br)cc3)n(N=C3CCCc4cc(OC)ccc43)c2nc1C [Compound 7, Ethyl-2-((4-bromophenyl)imino)-3-((6-methoxy-3,4-dihydronaphthalen-1(2H)-ylidene)amino)-5-methyl-2,3-dihydrothiazolo [4,5-b]pyridine-6-carboxylate] |  | 90 °C |  |  |  | 
COc1ccc2c(c1)CCCC2=NN1C(=O)CSC1=Nc1ccc(Oc2ccccc2)cc1 [Compound 4c, 3-((6-Methoxy-3,4-dihydronaphthalen-1(2H)-ylidene)amino)-2-((4-phenoxyphenyl)imino) thiazolidin-4-one] |  | 171 °C |  |  |  | 
COc1ccc2c(c1)CCCC2=Nn1c2c(sc1=Nc1ccc(Br)cc1)C(c1ccc([N+](=O)[O-])cc1)C(C#N)=C(N)O2 (stereo not drawn) [Compound 5b, 5-Amino-2-((4-bromophenyl)imino)-3-((6-methoxy-3,4-dihydronaphthalen-1(2H)-ylidene)amino)-7-(4-nitrophenyl)-3,7-dihydro-2H-pyrano [2,3-d]thiazole-6-carbonitrile] |  | 213 °C |  |  |  | 
COc1ccc2c(c1)CCCC2=NNC(=S)Nc1ccc(Br)cc1 [Compound 3a, N-(4-Bromophenyl)-2-(6-methoxy-3,4-dihydronaphthalen-1(2H)-ylidene)hydrazine-1-carbo thioamide] | 35.4 ± 0.64 µM | 191 to 193 °C | 12.7 ± 0.33 µM | more than 3 times |  | 
COc1ccc2c(c1)CCCC2=NN1C(=O)C(=CN(C)C)SC1=Nc1ccc(Br)cc1 [Compound 6, 2-((4-Bromophenyl)imino)-5-((dimethylamino)methylene)-3-((6-methoxy-3,4-dihydronaphthalene-1(2H)-ylidene)amino)thiazolidin-4-one] | 17.78 ± 0.16 µM | 236 °C | 7.48 ± 0.19 µM |  |  | 
COc1ccc2c(c1)CCCC2=Nn1c2c(sc1=Nc1ccc(Oc3ccccc3)cc1)C(c1ccc([N+](=O)[O-])cc1)C(C#N)=C(N)O2 (stereo not drawn) [Compound 5e, 5-Amino-3-((6-methoxy-3,4-dihydronaphthalen-1(2H)-ylidene)amino)-7-(4-nitrophenyl)-2-((4-phenoxyphenyl)imino)--3,7-dihydro-2H-pyrano [2,3-d]thiazole-6-carbonitrile] | 14.1 ± 0.36 µM | 223 °C | 2.36 ± 0.06 µM |  |  | 
COc1ccc(C2C(C#N)=C(N)Oc3c2sc(=Nc2ccc(Br)cc2)n3N=C2CCCc3cc(OC)ccc32)cc1 (stereo not drawn) [Compound 5a, 5-Amino-2-((4-bromophenyl)imino)-3-((6-methoxy-3,4-dihydronaphthalen-1(2H)-ylidene)amino)-7-(4-methoxyphenyl)-3,7-dihydro-2H-pyrano [2,3-d]thiazole-6-carbonitrile] | 17.2 ± 0.44 µM | 247 °C | 0.93 ± 0.02 µM |  | about 18.45 folds | 
COc1ccc2c(c1)CCCC2=Nn1c(=Nc2ccc(Br)cc2)sc2cc(C#N)c(=O)[nH]c21 [Compound 9, 2-((4-Bromophenyl)imino)-3-((6-methoxy-3,4-dihydronaphthalen-1(2H)-ylidene)amino)-5-oxo-2,3,4,5-tetrahydrothiazolo [4,5-b]pyridine-6-carbonitrile] |  | 224 °C |  |  |  | 
COc1ccc2c(c1)CCCC2=NN1C(=O)CSC1=Nc1ccc(F)cc1 [Compound 4b, 2-((4-Fluorophenyl)imino)-3-((6-methoxy-3,4-dihydronaphthalen-1(2H)-ylidene)amino) thiazolidin-4-one] | 29.2 ± 0.36 µM | 190 °C | 10.2 ± 0.26 µM |  |  | 
COc1ccc2c(c1)CCCC2=NNC(=S)Nc1ccc(F)cc1 [Compound 3b, N-(4-Fluorophenyl)-2-(6-methoxy-3,4-dihydronaphthalen-1(2H)-ylidene)hydrazine-1-carbo thioamide] |  | 154 to 156 °C |  |  |  | 
COc1ccc2c(c1)CCCC2=NN1C(=O)C(=CNc2nccs2)SC1=Nc1ccc(Br)cc1 [Compound 12, 2-(4-Bromophenylimino)-3-((6-methoxy-3,4-dihydronaphthalen-1(2H)-ylidene)amino)-5-((thiazol-2-ylamino)methylene)thiazolidin-4-one] |  | 152 °C |  |  |  | 
CCNC(=S)NN=C1CCCc2cc(OC)ccc21 [Compound 3d, N-(4-Ethyl)-2-(6-methoxy-3,4-dihydronaphthalen-1(2H)-ylidene)hydrazine-1-carbothioamide] | 19.7 ± 0.51 µM | 150 to 153 °C | 3.73 ± 0.09 µM |  |  | 
COc1ccc(C2C(C#N)=C(N)Oc3c2sc(=Nc2ccc(Oc4ccccc4)cc2)n3N=C2CCCc3cc(OC)ccc32)cc1 (stereo not drawn) [Compound 5d, 5-Amino-3-((6-methoxy-3,4-dihydronaphthalen-1(2H)-ylidene)amino)-7-(4-methoxyphenyl) -2-((4-phenoxyphenyl)imino)--3,7-dihydro-2H-pyrano [2,3-d]thiazole-6-carbonitrile] | 16.3 ± 0.42 µM | 209 °C | 1.76 ± 0.04 µM |  |  | 
COc1ccc2c(c1)CCCC2=NN1C(=O)CSC1=Nc1ccc(Br)cc1 [Compound 4a, 2-((4-Bromophenyl)imino)-3-((6-methoxy-3,4-dihydronaphthalen-1(2H)-ylidene)amino) thiazolidin-4-one] | 68 ± 0.86 µM | 183 °C | 28.6 ± 0.74 µM |  |  | 
COc1ccc2c(c1)CCC/C2=N\n1/c(=N/c2ccc(Br)cc2)sc2cc(C(C)=O)c(C)nc21 [Compound 8] | 43.7 ± 0.59 µM | 128 °C | 20 µM |  |  | 20 ± 0.52 µM
